Entries after “also recorded” stand apart in the source; their conditions may differ. Where a SMILES comes first, the peptide text is derived from it. The star is where a group is joined. Cbz = O=C(OCc1ccccc1)*; CHN2 = [N-]=[N+]=C*; tBu = CC(C)(C)*
Legend:
[1] = tested on: EboV Zaire GP; type: cell-based
[2] = tested on: Cote d'Ivoire GPΔMuc; type: cell-based, Ebola Cote d'Ivoire
[3] = tested on: Sudan GPΔMuc; type: cell-based, Ebola Sudan
[4] = tested on: Marburg (Musoke strain) virus; type: cell-based
[5] = tested on: CatB; type: cell-based
[6] = tested on: EboV-Zaire (1995 strain); type: cell-based
[7] = tested on: Marburg-GP; type: cell-based, Marburg virus
[8] = tested on: Reston GPΔMuc; type: cell-based, Ebola Reston
[9] = tested on: VSV G; type: cell-based, vesicular stomatitis virus (VSV)
[10] = molecular target: T1, CatL (Chlorocebus aethiops, UniProt Q9GKL8); type: cell-based
T1 construct: CatB and Cathepsin L (CatL) enzymatic activities in CA074-treated cells; endogenous in cells; host or cells: Vero cells
T1 sequence (Q9GKL8 114-333): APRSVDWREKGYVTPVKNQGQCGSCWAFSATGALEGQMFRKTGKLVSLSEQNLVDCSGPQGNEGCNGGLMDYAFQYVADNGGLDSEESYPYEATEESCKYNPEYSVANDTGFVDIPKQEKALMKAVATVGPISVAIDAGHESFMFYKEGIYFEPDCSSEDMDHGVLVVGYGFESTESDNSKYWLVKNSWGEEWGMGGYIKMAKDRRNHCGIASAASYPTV

[11] = tested on: cell-cell fusion mediated by Nipah virus glycoproteins F and G; type: cell-based; conditions: 24 hours

Compound	EboV GP-dependent infection of Vero cells [1]	block of infection, Ebola Zaire [1]	reduction of infection in the absence of detectable CatB activity [1]	block of infection, Cote d'Ivoire [2]	inhibition of infection, Sudan [3]	inhibition of growth of Marburg virus on Vero cells [4]	approximate level of cellular CatB activity (B %) [5]	expression of cell-associated GP1 [6]	infectivity of Marburg [7]	infectivity of Reston [8]	VSV G-dependent infection [9]	approximate level of cellular CatL activity (L %) [10]	infection, Zaire [1]	infection, Cote d'Ivoire [2]	infection, Sudan [3]	inhibition of CatB activity [5]	infection, Marburg [7]	infection, Reston [8]	cell-cell fusion by Nipah virus glycoproteins (syncytia) [11]	inhibition of CatL activity [10]
CCCNC(=O)[C@H]1O[C@@H]1C(=O)N[C@H](C(=O)N1CCC[C@H]1C(=O)O)[C@@H](C)CC [CA074]	inhibited infection	~99%	~99.9%	~99%	90%	not each alone	~10%	markedly reduced	unaffected	unaffected	Neither compound inhibited	~100%								
CC(C)(C)Oc1ccc(C[C@H](NC(=O)[C@H](Cc2ccccc2)NC(=O)OCc2ccccc2)C(=O)C=[N+]=[N-])cc1 [FYdmk, Z-Phe-Tyr-(tBu)-diazomethylketone] (Cbz-Phe-Tyr(tBu)-CHN2)	inhibited infection					not each alone	~10%				Neither compound inhibited	~0%	blocked	blocked	blocked	can inhibit	blocked	blocked	dramatically reduces cell-cell fusion; also recorded: inhibits cell-cell fusion	can inhibit

Reference: patent publication US8232240B2, “Inhibitors of enveloped virus infectivity” (priority 2005, dated 2012)
